# Experimental data as given in paper PMC11672294, “The Antipsychotic Drug Aripiprazole Suppresses Colorectal Cancer by Targeting LAMP2a to Induce RNH1/miR‐99a/mTOR‐Mediated Autophagy and Apoptosis” (Advanced Science, 2024).
# Counter-ions that a name gives are not always drawn. Starred links: 1 amine or outer side, 2 acyl side, 3 side chain; linkers in the order of their positions; H or OH if unused. Positions of bridges follow the written chain, without caps; N, C: chain ends. Non-standard residues stand in square brackets, D forms with d. Residues, ends and D or L forms follow the SMILES beside them. *: point of attachment. hTyr(3S-OH,4S-OH,3'-OSO3H) = N[C@H](C(=O)O)[C@H](O)[C@@H](O)c1ccc(O)c(OS(=O)(=O)O)c1; Orn(4R-OH,5R-OH) = O=C([C@H](C[C@@H](O)[C@@H](O)N[*:3])N[*:1])[*:2]; Pro(3S-OH,4S-Me) = C[C@H]1CN[C@H](C(=O)O)[C@H]1O; X1 = CCCCCOc1ccc(-c2cc(-c3ccc(C(=O)*)cc3)no2)cc1; Gln(3R-OH) = NC(=O)C[C@@H](O)[C@H](N)C(=O)O; Hyp = O=C(O)[C@@H]1C[C@@H](O)CN1
# Test system: HT29
# Settings: 72 h, relative to DMSO; 10 µM
# Method in brief: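 Cells were exposed to drug for 72 h, then to WST-1 for 2 h at 37 °C, and absorbance was read at 450 nm as viability against DMSO treatment. In the screen, each compound was applied at 10 µM.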
row,Compound,Relative cell viability (%) [%]
1,N#C/C(=C1/SC[C@@H](c2ccc(Cl)cc2Cl)S1)n1ccnc1 [Luliconazole],76.67
2,"Cn1cnc2c(F)c(Nc3ccc(Br)cc3F)c(C(=O)NOCCO)cc21 [MEK162 (ARRY-162, ARRY-438162)]",36.75
3,CC(C)C[C@H](NC(=O)CNC(=O)c1cc(Cl)ccc1Cl)B(O)O [MLN2238],125
4,Cc1nnc(C(C)C)n1[C@@H]1C[C@H]2CC[C@@H](C1)N2CC[C@H](NC(=O)C1CCC(F)(F)CC1)c1ccccc1 [Maraviroc],135.7
5,CNC(=O)[C@@H](NC(=O)[C@H](CC(C)C)[C@H](O)C(=O)NO)C(C)(C)C [Marimastat(BB-2516)],121.4
6,CCOC(=O)c1c(C)n(C)c2ccc(O)cc12 [Mecarbinate],130.3
7,Cc1cccc(CN2CCN(C(c3ccccc3)c3ccc(Cl)cc3)CC2)c1 (stereo not shown) [Meclizine 2HCl],130.4
8,Cc1ccc(Cl)c(Nc2ccccc2C(=O)O)c1Cl [Meclofenamate Sodium],83.03
9,Cc1cccc(C(C)c2cnc[nH]2)c1C (stereo not shown) [Medetomidine HCl],57.77
10,CC(=O)O[C@]1(C(C)=O)CC[C@H]2[C@@H]3C=C(C)C4=CC(=O)CC[C@]4(C)[C@H]3CC[C@@]21C [Megestrol Acetate],68.07
11,CNC[C@H](O)[C@@H](O)[C@H](O)[C@H](O)CO [Meglumine],172.9
12,Cc1cnc(NC(=O)C2=C(O)c3ccccc3S(=O)(=O)N2C)s1 [Meloxicam],51.27
13,CC12CC3CC(C)(C1)CC(N)(C3)C2 [Memantine HCl],108.7
14,CC1=CC(=O)c2ccccc2C1=O [Menadione],15.16
15,Sc1ncnc2nc[nH]c12 [Mercaptopurine (6-MP)],52.49
16,C[C@@H](O)[C@H]1C(=O)N2C(C(=O)O)=C(S[C@@H]3CN[C@H](C(=O)N(C)C)C3)[C@H](C)[C@H]12 [Meropenem],72.74
17,O=S(=O)(O)CCS [Mesna],56.36
18,C#C[C@]1(O)CC[C@H]2[C@@H]3CCc4cc(OC)ccc4[C@H]3CC[C@@]21C [Mestranol],119.6
19,COc1ccccc1OCC(O)COC(N)=O (stereo not shown) [Methocarbamol],46.19
20,COc1c2occc2cc2ccc(=O)oc12 [Methoxsalen],170.4
21,C[N+]1(C)[C@@H]2C[C@@H](OC(=O)[C@H](CO)c3ccccc3)C[C@H]1[C@@H]1O[C@@H]12 [Methscopolamine],132.5
22,C[C@H]1C[C@@H]2[C@H]([C@@H](O)C[C@@]3(C)[C@H]2CC[C@]3(O)C(=O)CO)[C@@]2(C)C=CC(=O)C=C12 [Methylprednisolone],42.37
23,CCN(CC)CCNC(=O)c1cc(Cl)c(N)cc1OC [MetoclopraMide HCl],75.76
24,COCCc1ccc(OCC(O)CNC(C)C)cc1 (stereo not shown) [Metoprolol Tartrate],94.49

row,Compound,Relative cell viability (%) [%]
1,Cc1ncc([N+](=O)[O-])n1CCO [Metronidazole],113.4
2,CC[C@H](C)C(=O)O[C@H]1CCC=C2C=C[C@H](C)[C@H](CC[C@@H]3C[C@@H](O)CC(=O)O3)[C@H]21 [Mevastatin],86.67
3,Cc1cccc(C)c1OCC(C)N (stereo not shown) [Mexiletine HCl],84.85
4,CC1(C)S[C@@H]2[C@H](NC(=O)[C@H](NC(=O)N3CCN(S(C)(=O)=O)C3=O)c3ccccc3)C(=O)N2[C@H]1C(=O)O [Mezlocillin Sodium],90.303
5,CN1CCN2c3ccccc3Cc3ccccc3C2C1 (stereo not shown) [Mianserin HCl],57.17
6,"CCCCCOc1ccc(-c2cc(-c3ccc(C(=O)N[C@H]4C[C@@H](O)[C@@H](O)NC(=O)[C@@H]5[C@@H](O)[C@@H](C)CN5C(=O)[C@H]([C@H](O)CC(N)=O)NC(=O)[C@H]([C@H](O)[C@@H](O)c5ccc(O)c(OS(=O)(=O)O)c5)NC(=O)[C@@H]5C[C@@H](O)CN5C(=O)[C@H]([C@@H](C)O)NC4=O)cc3)no2)cc1 [Micafungin Sodium] (X1-[Orn(4R-OH,5R-OH)]T[Hyp][hTyr(3S-OH,4S-OH,3'-OSO3H)][Gln(3R-OH)][Pro(3S-OH,4S-Me)]; lactam 1-C)",77.58
7,Clc1ccc(COC(Cn2ccnc2)c2ccc(Cl)cc2Cl)c(Cl)c1 (stereo not shown) [Miconazole Nitrate],184.3
8,CC#C[C@]1(O)CC[C@H]2[C@@H]3CCC4=CC(=O)CCC4=C3[C@@H](c3ccc(N(C)C)cc3)C[C@@]21C [Mifepristone],46.12
9,CN1CCN2c3ncccc3Cc3ccccc3C2C1 (stereo not shown) [Mirtazapine],177.9
10,Clc1ccc(C(c2ccccc2Cl)C(Cl)Cl)cc1 (stereo not shown) [Mitotane],63.98
11,CCOC(=O)[C@H](CCc1ccccc1)N[C@@H](C)C(=O)N1Cc2cc(OC)c(OC)cc2C[C@H]1C(=O)O [Moexipril HCl],110.2
12,C[C@@H]1C[C@H]2[C@@H]3CCC4=CC(=O)C=C[C@]4(C)[C@@]3(Cl)[C@@H](O)C[C@]2(C)[C@@]1(OC(=O)c1ccco1)C(=O)CCl [Mometasone furoate],144.2
13,CC(C)(O)c1ccccc1CC[C@@H](SCC1(CC(=O)O)CC1)c1cccc(/C=C/c2ccc3ccc(Cl)cc3n2)c1 [Montelukast Sodium],74.85
14,CCOc1cc(N)c(Cl)cc1C(=O)NCC1CN(Cc2ccc(F)cc2)CCO1 (stereo not shown) [Mosapride Citrate],38.47
15,CCCN(CCC)C(=O)C1=Cc2ccc(-c3ccc(C(=O)N4CCCC4)cc3)cc2N=C(N)C1 [Motolimod (VTX-2337)],31.62
16,COc1nc(C)nc(Cl)c1N=C1NCCN1 [Moxonidine],116.7
17,FC(F)(F)c1ccc(/C=C/c2nc(COc3ccc(CCCCn4ccnn4)cc3)co2)cc1 [Mubritinib (TAK 165)],116.7
18,C/C(=C\C(=O)OCCCCCCCCC(=O)O)C[C@@H]1OC[C@H](C[C@@H]2O[C@H]2[C@@H](C)[C@H](C)O)[C@@H](O)[C@H]1O [Mupirocin],92.12
19,N=C(N)c1ccc2cc(OC(=O)c3ccc(N=C(N)N)cc3)ccc2c1 [Nafamostat Mesylate],66.51
20,COc1ccccc1N1CCN(CC(O)COc2cccc3ccccc23)CC1 (stereo not shown) [Naftopidil],100.8
21,CCn1cc(C(=O)O)c(=O)c2ccc(C)nc21 [Nalidixic acid],106.7
22,C=CCN1CC[C@]23c4c5ccc(O)c4O[C@H]2C(=O)CC[C@@]3(O)[C@H]1C5 [Naloxone HCl],95.63
23,O=C1CC[C@@]2(O)[C@H]3Cc4ccc(O)c5c4[C@@]2(CCN3CC2CC2)[C@H]1O5 [Naltrexone HCl],104.3
24,CC(=O)c1cc2c(o1)C(=O)c1ccccc1C2=O [Napabucasin],0

row,Compound,Relative cell viability (%) [%]
1,Cc1cccc(C)c1NC(=O)CN1CCCC1=O [Nefiracetam],192.8
2,COc1nc(N)nc2c1ncn2[C@@H]1O[C@H](CO)[C@@H](O)[C@@H]1O [Nelarabine],86.76
3,Cc1c(O)cccc1C(=O)N[C@@H](CSc1ccccc1)[C@H](O)CN1C[C@H]2CCCC[C@H]2C[C@H]1C(=O)NC(C)(C)C [Nelfinavir Mesylate],23.94
4,NC(=O)Cc1cccc(C(=O)c2ccccc2)c1N [Nepafenac],77.41
5,CCOc1cc2ncc(C#N)c(Nc3ccc(OCc4ccccn4)c(Cl)c3)c2cc1NC(=O)/C=C/CN(C)C [Neratinib (HKI-272)],97.84
6,Cc1ccnc2c1NC(=O)c1cccnc1N2C1CC1 [Nevirapine],94.49
7,COC(=O)C1=C(C)NC(C)=C(C(=O)OCCN(C)Cc2ccccc2)C1c1cccc([N+](=O)[O-])c1 (stereo not shown) [Nicardipine HCl],83.03
8,O=C(NCCO[N+](=O)[O-])c1cccnc1 [Nicorandil],198.8
9,NC(=O)c1cccnc1 [Nicotinamide (Vitamin B3)],113.7
10,O=C(O)c1cccnc1 [Nicotinic Acid],70.34
11,O=C(O)c1cccnc1Nc1cccc(C(F)(F)F)c1 [Niflumic acid],95.63
12,O=C(N/N=C/c1ccc([N+](=O)[O-])o1)c1ccc(O)cc1 [Nifuroxazide],43.03
13,COC(=O)C1=C(C#N)NC(C)=C(C(=O)OC(C)C)C1c1cccc([N+](=O)[O-])c1 (stereo not shown) [Nilvadipine],81.07
14,CS(=O)(=O)Nc1ccc([N+](=O)[O-])cc1Oc1ccccc1 [Nimesulide],191.7
15,COCCOC(=O)C1=C(C)NC(C)=C(C(=O)OC(C)C)C1c1cccc([N+](=O)[O-])c1 (stereo not shown) [Nimodipine],53.81
16,COC(=O)C1=C(C)NC(C)=C(C(=O)OCC(C)C)C1c1ccccc1[N+](=O)[O-] (stereo not shown) [Nisoldipine],56.36
17,CNC(=C[N+](=O)[O-])NCCSCc1csc(CN(C)C)n1 [Nizatidine],77.97
18,NC[C@H](O)c1ccc(O)c(O)c1 [Noradrenaline bitartrate monohydrate],75.24
19,C[C@@H]1[C@H](O)[C@@H](C)/C=C/C=C/CC/C=C/C=C/C=C/C=C/[C@H](O[C@H]2O[C@@H](C)[C@H](O)[C@@H](N)[C@H]2O)C[C@@H]2O[C@](O)(C[C@@H](O)[C@H](O)CC[C@@H](O)C[C@@H](O)C[C@@H](O)CC(=O)O[C@H]1C)C[C@H](O)[C@H]2C(=O)O [Nystatin (Fungicidin)],170.8
20,CC[C@H]1[C@@H](O)[C@@H]2[C@H](CC[C@]3(C)[C@@H]([C@H](C)CCC(=O)O)CC[C@@H]23)[C@@]2(C)CC[C@@H](O)C[C@@H]12 [Obeticholic Acid],111.1
21,Cc1c(-c2cnccn2)ssc1=S [Oltipraz],84.19
22,COc1ccc2[nH]c([S+]([O-])Cc3ncc(C)c(OC)c3C)nc2c1 (stereo not shown) [Omeprazole],88.32
